Tested on: mouse embryonic stem cells
Experiment: MTT cell viability assay of tert-butyl hydroperoxide oxidative stress-induced cytotoxicity in mouse embryonic stem cells
Format: cell-based
Details: for viability at 0.1 µM / viability at 0.5 µM / viability at 1 µM: Mus musculus, Embryonic stem cell, read-out: Ave. Cell Viability (%)
Description: Oxidative stress and related free radical damage can be induced in cells, including stem cells, by exposing the cells to tert-butyl hydroperoxide in the incubation medium. Decomposition of the peroxide over a period of time leads to a steady generation of reactive oxygen species. This in turn triggers a cascade of free radical-mediated events that eventually leads to irreversible damage and ultimately cell death as the natural antioxidant defences are overwhelmed.
The extent of cytotoxicity induced by peroxide exposure can be quantified using a number of well-documented assays, including the MTT protocol. This is a colorometric assay that measures the reduction of MTT to formazan, a process that can only occur when cells are viable. Thus, by comparing the amount of formazan produced in control cells, against cells treated with a cytotoxic agent, such as tert-butyl hydroperoxide, the reduction in cell viability induced by the agent can be measured.
The assay can be further extended to determine the effectiveness of compounds to provide protection against cytotoxic agents. In the case of the novel antioxidants, the subject of this patent, this can be achieved by pre-incubation of the cells with the antioxidant agent prior to induction of oxidative stress by tert-butyl hydroperoxide. Thus a comparison of the amount of formazan produced by control cells against cells with the cytotoxic peroxide present, plus or minus pre-incubation with the novel antioxidant, can determine the extent by which the compound can retain cell viability.
A 96-well plate was seeded with approximately 20,000 mouse embryonic stem cells per well and left to grow at 37° C. (5% CO2) overnight. Antioxidants, denoted as Exp.1, Exp.2 and Exp.3, were dissolved in DMSO and added to the wells in triplicate 30 min before induction of oxidative stress with tert-butyl hydroperoxide. The resultant concentrations of the tested antioxidants in the wells were 0.1, 0.5 and 1 μM. Controls were also initiated using cell medium (DMEM^+)/DMSO. After the 30 min pre-incubation period, tert-butyl peroxide was added to the wells to provide a final concentration of 400 μM. The plated cells were returned to the incubator (37° C.) for 90 min. After this period, 20 μL of the MTT reagent solution was added to all of the wells. The plate was then further incubated for a further 3 hours. The supernatant was removed from the wells and 200 μl DMSO added to all wells to solubilise reduced MTT (formazan). The plate was protected from light and shaken for 10 min. The supernatant was removed from the wells and aliquoted into a new 96-well plate for the colorometric measurements. Absorbance was determined at 540 nm.
The average corrected absorbance. (0.737) for the DMEM^+ control (which contained no antioxidant compounds or tert-butyl hydroperoxide) represented the 100% viability benchmark. Comparison of the corrected absorbances in the various well treatment regimes relative to that of the DMEM^+ control enabled the resultant effects on cell viability to be calculated. tBHP=tert-butyl hydroperoxide.

SMILES: CCCCCCCCCCc1ccc2c(=O)c(O)c(-c3cc(O)c(O)c(O)c3)oc2c1 [Exp.1]
- viability at 0.1 µM: 56.9%
- viability at 0.5 µM: 86.5%
- viability at 1 µM: 84.8%
- Ave. Cell Viability (%) (mouse, 120 min, 1 μM): 107.4%

SMILES: CCCCCCCCCCCCc1cc(=O)c(O)c(-c2cc(O)c(O)c(O)c2)o1 [Exp.2]
- viability at 0.1 µM: 60.5%
- viability at 0.5 µM: 94.8%
- viability at 1 µM: 96.9%
- Ave. Cell Viability (%) (mouse, 120 min, 1 μM): 104.1%

SMILES: CCCCCCCCc1cc(=O)c(O)c(-c2cc(O)c(O)c(O)c2)o1 [Exp.3]
- viability at 0.1 µM: 34.4%
- viability at 0.5 µM: 55.5%
- viability at 1 µM: 70.4%

SMILES: CC(C)(C)OO [tBHP, tert-butyl hydroperoxide, reference compound]
- Ave. Cell Viability (%) (400 μM tBHP alone, no antioxidant, 90 min, relative to DMEM+ control = 100%): 37.0%
- Ave. Cell Viability (%) (400 μM tBHP alone, no antioxidant, 90 min, relative to DMEM+ control = 100%, listed as tert-butyl hydroperoxide): 37%
